According to US7557215B2, “Anthraquinone compounds as anti cancer compounds” (Somanta Limited, priority 2003, dated 2009):
Read-outs that look alike come from different tables or passages of the source.

Experiments:
[1] = system: A2780
[2] = system: A2780; experiment: Inhibition of cell growth, A2780 wild type ovarian carcinoma cell line
[3] = system: A2780/cp70; experiment: Inhibition of cell growth, cisplatin resistant A2780/cp70 cell line; type: cell-based, human; settings: text b280, b283
[4] = system: human ovarian tumour xenograft (A2780); experiment: Tumour doubling time, human ovarian tumour xenograft A2780 in mice; type: in vivo
Source text: (§1) Compound HAQ71, with the lowest RF (0.2) of the panel of compounds tested against the cisplatin resistant cells and its chloropropyl-substituted analogue, was selected for in vivo investigation in mice using tumour A2780 and A2780/cp70 cells grown as xenografts in mice. Significant anticancer activity in vivo of HAQ71 and CAQ75 was shown; both compounds exerting similar tumour growth delay in human xenografted wild-type and acquired cisplatin resistant tumours (A2780/cp70). The latter is very refractory to cisplatin and other covalent binding agents and has been characterised with elevated levels of glutathione, alterations in drug uptake/efflux and DNA repair mechanisms including mismatch repair deficiency.

[5] = system: cisplatin resistant variant (A2780/cp70) xenograft; experiment: Tumour doubling time, cisplatin resistant variant xenograft A2780/cp70 in mice; type: in vivo
Source text: as §1

| SMILES | cytotoxicity ratio (CR=IC50 of alkylaminoanthraquinone-di-N-oxide/IC50 alkylaminoanthraquinone) [1] | IC50 ([2]; read-out: Growth Inhibition (IC50) A2780, A2780, Table 4) | RF against the cisplatin resistant cells [3] | doubling time (days) of tumour xenograft ([4]; 16 mg/kg i.p.) | tumour doubling time, percent ([4]; 16 mg/kg i.p.) | doubling time (days) of tumour xenograft ([5]; 16 mg/kg i.p.) | tumour growth delay (%) ([5]; 16 mg/kg i.p.) | fold decrease in cytotoxicity on substitution of OH with Cl (HAQ71 vs CAQ75) ([2]; CAQ75 compared with HAQ71) | doubling time (days) of tumour xenograft ([4]; 20 mg/kg i.p.) | tumour doubling time, percent ([4]; 20 mg/kg i.p.) | doubling time (days) of tumour xenograft ([5]; 20 mg/kg i.p.) | tumour growth delay (%) ([5]; 20 mg/kg i.p.) | IC50 ([2]; read-out: Inhibition of cell growth (IC50, nM) A2780, A2780, Table 1) |
| --- | --- | --- | --- | --- | --- | --- | --- | --- | --- | --- | --- | --- | --- |
| C[N+](C)([O-])CCNc1ccc(NCC[N+](C)(C)[O-])c2c1C(=O)c1c(O)ccc(O)c1C2=O [AQ4N] | 17,000 | > 100000 nM |  |  |  |  |  |  |  |  |  |  |  |
| CN(C)CCNc1ccc(NCCN2CCCCC2CCl)c2c1C(=O)c1c(O)ccc(O)c1C2=O (centres unmarked) [CAQ75, 1-{[2-(2-Chloromethylpiperidin-1-yl)ethyl]amino}-4-{[(2-dimethylamino)ethyl]amino}-5,8-dihydroxyanthracene-9,10-dione] |  |  | 0.4 | 5.83 ± 0.40 days | 198% | 4.18 ± 0.27 days | 166% | > 10 fold |  |  |  |  |  |
| CN(C)CCNc1ccc(NCCN2CCCC(CO)C2)c2c1C(=O)c1c(O)ccc(O)c1C2=O (centres unmarked) [HAQ71, 1-[(2-Dimethylamino)ethylamino]-4-[2-(3-hydroxymethyl-piperidin-1-yl)ethylamino]-5,8-dihydroxy-anthracene-9,10-dione] |  |  | 0.2 |  |  |  |  |  | 5.23 ± 0.39 days | 177% | 4.33 ± 0.16 days | 172% | 8.4 nM |
